Data as given in the supplement of paper PMC11061612.

Legend:
[1] = compound: C=CCn1c(=O)c2cnc(Nc3ccc(N4CCN(C)CC4)cc3)nc2n1-c1cccc(C(C)(C)O)n1 [AZD1775]; settings: max 3 µM
Method in brief: (§1)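 Cancer cell lines were seeded in 1536-well plates in 7.5 μl DMEM/F12 or RPMI with 10% FBS, held 24 hours at 37°C and 5% CO2, then dosed for 72 hours (final DMSO typically 0.2%). Viability was read by CellTiter-Glo 2.0 luminescence and scaled between blank-well and DMSO-well means. The single-agent IC50 comes from dose responses fitted to a two-parameter logistic curve with a non-linear mixed effects model.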

[2] = compound: CC(=O)Nc1cccc(-n2c(=O)n(C3CC3)c(=O)c3c(Nc4ccc(I)cc4F)n(C)c(=O)c(C)c32)c1 [Trametinib]; settings: max 1 µM
Method in brief: as §1

[3] = compound: Cc1cc2ncnn2cc1Nc1ncc2c(n1)n(C1CCOCC1)c(=O)n2C [AZD7648]; settings: max 10 µM
Method in brief: as §1

[4] = compound: O=c1[nH]cc(F)c(=O)[nH]1 [5-Fluorouracil]; settings: max 20 µM
Method in brief: as §1

[5] = compound: Nc1ccn([C@@H]2O[C@H](CO)[C@@H](O)C2(F)F)c(=O)n1 [Gemcitabine]; settings: max 0.3 µM
Method in brief: as §1

[6] = compound: COc1cc([C@@H]2c3cc4c(cc3[C@@H](O[C@@H]3O[C@@H]5CO[C@@H](C)O[C@H]5[C@H](O)[C@H]3O)[C@H]3COC(=O)[C@H]23)OCO4)cc(OC)c1O [Etoposide]; settings: max 10 µM
Method in brief: as §1

[7] = compound: C1CN(CCC1(C(=O)N[C@@H](CCO)C2=CC=C(C=C2)Cl)N)C3=NC=NC4=C3C=CN4 [AZD5363]; settings: max 10 µM
Method in brief: as §1

[8] = compound: Cc1nc(-c2cn3c(n2)-c2ccc(-c4cnn(C(C)(C)C(N)=O)c4)cc2OCC3)n(C(C)C)n1 [Taselisib]; settings: max 10 µM
Method in brief: as §1

[9] = compound: CC(=O)c1c(C)c2cnc(Nc3ccc(N4CCNCC4)cn3)nc2n(C2CCCC2)c1=O [Palbociclib]; settings: max 10 µM
Method in brief: as §1

[10] = compound: CCc1c2c(nc3ccc(O)cc13)-c1cc3c(c(=O)n1C2)COC(=O)[C@]3(O)CC [SN-38]; settings: max 0.3 µM
Method in brief: as §1

[11] = compound: CC1=CN2[C@@H](C1)C=NC3=CC(=C(C=C3C2=O)OC)OCCCCCOC4=C(C=C5C(=C4)N=C[C@@H]6CC(=CN6C5=O)C)OC [SG3199]; settings: max 0.001 µM
Method in brief: as §1

[12] = compound: COc1cc2ncnc(Nc3ccc(F)c(Cl)c3)c2cc1OCCCN1CCOCC1 [Gefitinib]; settings: max 10 µM
Method in brief: as §1

[13] = compound: C[C@@H](Nc1cc(F)cc(F)c1)c1cc(C(=O)N(C)C)cc2c(=O)cc(N3CCOCC3)oc12 [AZD8186]; settings: max 10 µM
Method in brief: as §1

[14] = compound: CC1=C(C(=CC=C1)Cl)NC(=O)C2=CN=C(S2)NC3=CC(=NC(=N3)C)N4CCN(CC4)CCO [Dasatinib]; settings: max 2 µM
Method in brief: as §1

[15] = compound: COc1cccc2c1C(=O)c1c(O)c3c(c(O)c1C2=O)C[C@@](O)(C(=O)CO)C[C@@H]3O[C@H]1C[C@H](N)[C@H](O)[C@H](C)O1 [Doxorubicin]; settings: max 1 µM
Method in brief: as §1

[16] = compound: N#Cc1cnc(Nc2cc(NC[C@H]3CNCCO3)c(C(F)(F)F)cn2)cn1 [SRA737]; settings: max 10 µM
Method in brief: as §1

[17] = compound: Cc1c2c(nn1C)CSCc1cc(n(C)n1)CSc1cc(c3ccccc3c1)OCCCc1c(C(=O)O)n(C)c3c-2c(Cl)ccc13 [AZD5991]; settings: max 1 µM
Method in brief: as §1

[18] = compound: C[C@@H](Oc1cc(-c2cnn(C3CCNCC3)c2)cnc1N)c1c(Cl)ccc(F)c1Cl [Crizotinib]; settings: max 10 µM
Method in brief: as §1

[19] = compound: NC1(c2ccc(-c3nc4ccn5c(=O)[nH]nc5c4cc3-c3ccccc3)cc2)CCC1 [MK-2206]; settings: max 10 µM
Method in brief: as §1

[20] = compound: CCN(CCO)CCCOc1ccc2c(Nc3cc(CC(=O)Nc4cccc(F)c4)[nH]n3)ncnc2c1 [AZD2811]; settings: max 1 µM
Method in brief: as §1

[21] = compound: COc1nnc2ccc(N3CCC(c4ccc(OCCN5CCN(C)C(=O)[C@H]5C)cc4)CC3)nn12 [AZD5153]; settings: max 1 µM
Method in brief: as §1

[22] = compound: C[C@@H]1COCCN1C2=NC(=NC(=C2)C3(CC3)[S@](=N)(=O)C)C4=C5C=CNC5=NC=C4 [AZD6738]; settings: max 10 µM
Method in brief: as §1

[23] = compound: O=C(Nc1ccc2[nH]nc(-c3ccncc3)c2c1)[C@@H]1CCN(CC(=O)N2CCN(c3ccc(-c4ncccn4)cc3)CC2)C1; settings: max 5 µM
Method in brief: as §1

[24] = compound: CC(C)n1c(=O)n(C)c2cnc3cc(F)c(-c4ccc(OCCCN5CCCCC5)nc4)cc3c21 [AZD1390]; settings: max 0.3 µM
Method in brief: as §1

[25] = compound: CN(CC[C@H](CSC1=CC=CC=C1)NC2=C(C=C(C=C2)S(=O)(=O)NC(=O)C3=CC=C(C=C3)N4CCC(CC4)[C@H](C5=CC=CC=C5C6=CC=C(C=C6)Cl)O)S(=O)(=O)C(F)(F)F)CCO [AZD4320]; settings: max 1 µM
Method in brief: as §1

[26] = compound: CS(=O)(=O)CCNCc1ccc(-c2ccc3ncnc(Nc4ccc(OCc5cccc(F)c5)c(Cl)c4)c3c2)o1 [Lapatinib]; settings: max 10 µM
Method in brief: as §1

[27] = compound: C[C@@H](c1ccc2nccn2c1)n1nnc2ncc(-c3cnn(C)c3)nc21 [Savolitinib]; settings: max 1 µM
Method in brief: as §1

[28] = compound: CN(C)CCCOc1ccc(-c2ccc3ncc4c(c3c2)n(C2CCOCC2)c(=O)n4C)cn1 [AZD0156]; settings: max 3 µM
Method in brief: as §1

[29] = compound: O=C(c1cc(Cc2n[nH]c(=O)c3ccccc23)ccc1F)N1CCN(C(=O)C2CC2)CC1 [Olaparib]; settings: max 10 µM
Method in brief: as §1

[30] = compound: C1CC(C1)(C(=O)[O-])C(=O)[O-].N.N.[Pt+2] [Carboplatin]; settings: max 10 µM
Method in brief: as §1

[31] = compound: COc1cc(Nc2ncc3c(n2)-c2ccc(Cl)cc2C(c2c(F)cccc2OC)=NC3)ccc1C(=O)O [Alisertib]; settings: max 10 µM
Method in brief: as §1

[32] = compound: CC(=O)O[C@H]1C(=O)[C@@]2(C)[C@H]([C@H](OC(=O)c3ccccc3)[C@]3(O)C[C@H](OC(=O)[C@H](O)[C@@H](NC(=O)c4ccccc4)c4ccccc4)C(C)=C1C3(C)C)[C@]1(OC(C)=O)CO[C@@H]1C[C@@H]2O [Paclitaxel]; settings: max 3 µM
Method in brief: as §1

[33] = compound: CC1(C)CCC(CN2CCN(c3ccc(C(=O)NS(=O)(=O)c4ccc(NCC5CCOCC5)c([N+](=O)[O-])c4)c(Oc4cnc5[nH]ccc5c4)c3)CC2)=C(c2ccc(Cl)cc2)C1 [Venetoclax]; settings: max 1 µM
Method in brief: as §1

[34] = compound: Cn1cnc2c(F)c(Nc3ccc(Br)cc3Cl)c(C(=O)NOCCO)cc21 [Selumetinib]; settings: max 10 µM
Method in brief: as §1

[35] = compound: COc1cccc(OCCCN)c1-c1cc(Nc2cnc(C#N)cn2)n[nH]1 [Prexasertib]; settings: max 1 µM
Method in brief: as §1

Cell Line | IC50, cell viability 72 h [1] [nM] | IC50, cell viability 72 h [2] [nM] | IC50, cell viability 72 h [3] [nM] | IC50, cell viability 72 h [4] [nM] | IC50, cell viability 72 h [5] [nM] | IC50, cell viability 72 h [6] [nM] | IC50, cell viability 72 h [7] [nM] | IC50, cell viability 72 h [8] [nM] | IC50, cell viability 72 h [9] [nM] | IC50, cell viability 72 h [10] [nM] | IC50, cell viability 72 h [11] [nM] | IC50, cell viability 72 h [12] [nM] | IC50, cell viability 72 h [13] [nM] | IC50, cell viability 72 h [14] [nM] | IC50, cell viability 72 h [15] [nM] | IC50, cell viability 72 h [16] [nM] | IC50, cell viability 72 h [17] [nM] | IC50, cell viability 72 h [18] [nM] | IC50, cell viability 72 h [19] [nM] | IC50, cell viability 72 h [20] [nM] | IC50, cell viability 72 h [21] [nM] | IC50, cell viability 72 h [22] [nM] | IC50, cell viability 72 h [23] [nM] | IC50, cell viability 72 h [24] [nM] | IC50, cell viability 72 h [25] [nM] | IC50, cell viability 72 h [26] [nM] | IC50, cell viability 72 h [27] [nM] | IC50, cell viability 72 h [28] [nM] | IC50, cell viability 72 h [29] [nM] | IC50, cell viability 72 h [30] [nM] | IC50, cell viability 72 h [31] [nM] | IC50, cell viability 72 h [32] [nM] | IC50, cell viability 72 h [33] [nM] | IC50, cell viability 72 h [34] [nM] | IC50, cell viability 72 h [35] [nM]
ES8 (Ewing's Sarcoma) | 522 | > 1000 | > 10000 | > 20000 | 5.64 | 358 | 8220 | 800 | 9500 | 1.41 | > 1 | > 10000 | > 10000 | > 2000 | 79.8 | > 10000 | > 1000 | 1470 | 5790 | 5.8 | 165 | 3460 | > 5000 | > 300 | > 1000 | > 10000 | > 1000 | > 3000 | 3250 | > 10000 | 16.2 | < 3 | > 1000 | > 10000 | 41.7
GR-ST (B-Lymphoblastic Leukemia) | 375 | > 1000 | > 10000 | > 20000 | 19.8 | 9020 | 4130 | 874 | 3060 | 6.71 | > 1 | > 10000 | 4950 | > 2000 | 684 | 1750 | > 1000 | 2380 | 2260 | > 1000 | 41.2 | 1740 | > 5000 | > 300 | > 1000 | 5910 | > 1000 | > 3000 | > 10000 | > 10000 | > 10000 | 9.98 | > 1000 | > 10000 | 16.8
K-562 (Chronic Myelogenous Leukemia) | 624 | > 1000 | > 10000 | > 20000 | > 300 | > 10000 | > 10000 | > 10000 | > 10000 | 112 | > 1 | > 10000 | > 10000 | 22.3 | > 1000 | 4120 | > 1000 | 2110 | > 10000 | > 1000 | > 1000 | 4140 | > 5000 | > 300 | > 1000 | > 10000 | > 1000 | > 3000 | > 10000 | > 10000 | 4680 | 34.1 | > 1000 | > 10000 | 19.5
L-540 (Hodgkin's Lymphoma) | 299 | > 1000 | > 10000 | 835 | 7.55 | 779 | > 10000 | > 10000 | > 10000 | 2.77 | > 1 | > 10000 | > 10000 | > 2000 | 157 | 2460 | 99.8 | 6590 | > 10000 | > 1000 | 104 | 761 | > 5000 | > 300 | > 1000 | > 10000 | > 1000 | > 3000 | > 10000 | > 10000 | 3880 | 39.3 | > 1000 | > 10000 | 8.45
MKN28 (Gastric Carcinoma) | > 3000 | > 1000 | > 10000 | > 20000 | > 300 | > 10000 | > 10000 | > 10000 | > 10000 | > 300 | > 1 | > 10000 | > 10000 | > 2000 | > 1000 | > 10000 | > 1000 | > 10000 | > 10000 | > 1000 | > 1000 | > 10000 | > 5000 | > 300 | > 1000 | > 10000 | > 1000 | > 3000 | > 10000 | > 10000 | > 10000 | 1440 | > 1000 | > 10000 | 456
